Data as given in article PMC8910920 (International Journal of Molecular Sciences, 2022).

Assays:
[1] = biological target: T1, rTRPM8 (Rattus norvegicus, UniProt Q8R455); assay: Ca2+ microfluorography assay, HEK293 cells expressing rTRPM8, menthol activation; assay type: cell-based
T1 construct: expressed in transfected cells
Protocol: This represents a similar activity as β–lactam 2 and a somewhat higher potency than the model TRPM8 antagonists AMTB.
To measure the effect of the compounds against TRPM8 activity we used microfluorometry-based calcium flux assays with Fluo-4 NW Ca^2+ dye and fluorescence as described in [30]. Briefly, human embryonic kidney cell line (HEK293) cells stably transfected with rTRPM8 or hTRPM8 were seeded in 96-well plates at a cell density of 30,000 cells. After 2 days the medium was replaced with 100 μL of the dye, Fluo-4 NW, loading solution supplemented with probenecid 2.5 mM and incubated 1 h at 37 °C. The TRPM8 activity was measured using POLASTAR plate reader (BMG Labtech) setting the excitation wavelength at 485 nm and the emission wavelength at 520 nm. The baseline fluorescence was recorded for 3 cycles before the addition of vehicle compound at different concentrations and the antagonist, 10 μM AMTB. Fluorescence intensity was recorded during 7 more cycles and 100 μM menthol was added. Fluorescence intensity was recorded during 10 more cycles.
Data analysis: The Z-factor was calculated in each assay using the following equation: […]. In all the experiments, the Z-factor was ≥0.5. The effect of the compounds against TRPM8 activity was determined by normalizing their effect on the maximum fluorescence observed after application of 100 μM menthol. Decrease in menthol signal was expressed as percentage of inhibition (%). All data are expressed as the mean ± standard deviation (SD). Data are expressed as the concentration exerting a half-maximal inhibition of agonist-induced [Ca^2+]i elevation (IC50), which was calculated again using GraphPad Prism® software. All determinations were performed in triplicate (n = 3) in 3 independent experiments (N = 3).

[2] = Partition coefficient (Log D); assay type: physicochemical
Protocol: These studies were subcontracted to Eurofins-CEREP or Eurofins-PANLABS. Briefly, agonists and antagonist assays were performed in cell cultures overexpressing the corresponding channel (CHO: TRPV1 and TRPA1; HEK293: TRPV3 and ASIC3). In vitro pharmacology, cellular channel functional assays: the compound was prepared in assay buffer to the final concentration, 10 μM. The compound wells, reference agonist and background vehicle controls were prepared in DMSO at 0.3%. […] The reference agonist for each Ion Channel was included at Emax (the concentration where the reference agonist elicited a maximal response). The agonist assay was conducted on fluorimeter instruments where the test compound, vehicle controls, and reference agonist were added to the assay plate after a fluorescence baseline was established. […] For the antagonist assay, the compound was pre-incubated for five minutes at room temperature, and then challenged with the EC80 concentration of the reference agonist after establishment of a fluorescence baseline. […] Binding assay results are expressed as a percent of control specific binding. […] Aqueous solubility (μM) was determined by comparing the peak area of the principal peak in a calibration standard (200 μM) containing organic solvent (methanol/water, 60/40, v/v) with the peak area of the corresponding peak in a buffer sample. […] Permeability was measured in CACO-2 monolayers.

T1 sequence (Q8R455 whole entry): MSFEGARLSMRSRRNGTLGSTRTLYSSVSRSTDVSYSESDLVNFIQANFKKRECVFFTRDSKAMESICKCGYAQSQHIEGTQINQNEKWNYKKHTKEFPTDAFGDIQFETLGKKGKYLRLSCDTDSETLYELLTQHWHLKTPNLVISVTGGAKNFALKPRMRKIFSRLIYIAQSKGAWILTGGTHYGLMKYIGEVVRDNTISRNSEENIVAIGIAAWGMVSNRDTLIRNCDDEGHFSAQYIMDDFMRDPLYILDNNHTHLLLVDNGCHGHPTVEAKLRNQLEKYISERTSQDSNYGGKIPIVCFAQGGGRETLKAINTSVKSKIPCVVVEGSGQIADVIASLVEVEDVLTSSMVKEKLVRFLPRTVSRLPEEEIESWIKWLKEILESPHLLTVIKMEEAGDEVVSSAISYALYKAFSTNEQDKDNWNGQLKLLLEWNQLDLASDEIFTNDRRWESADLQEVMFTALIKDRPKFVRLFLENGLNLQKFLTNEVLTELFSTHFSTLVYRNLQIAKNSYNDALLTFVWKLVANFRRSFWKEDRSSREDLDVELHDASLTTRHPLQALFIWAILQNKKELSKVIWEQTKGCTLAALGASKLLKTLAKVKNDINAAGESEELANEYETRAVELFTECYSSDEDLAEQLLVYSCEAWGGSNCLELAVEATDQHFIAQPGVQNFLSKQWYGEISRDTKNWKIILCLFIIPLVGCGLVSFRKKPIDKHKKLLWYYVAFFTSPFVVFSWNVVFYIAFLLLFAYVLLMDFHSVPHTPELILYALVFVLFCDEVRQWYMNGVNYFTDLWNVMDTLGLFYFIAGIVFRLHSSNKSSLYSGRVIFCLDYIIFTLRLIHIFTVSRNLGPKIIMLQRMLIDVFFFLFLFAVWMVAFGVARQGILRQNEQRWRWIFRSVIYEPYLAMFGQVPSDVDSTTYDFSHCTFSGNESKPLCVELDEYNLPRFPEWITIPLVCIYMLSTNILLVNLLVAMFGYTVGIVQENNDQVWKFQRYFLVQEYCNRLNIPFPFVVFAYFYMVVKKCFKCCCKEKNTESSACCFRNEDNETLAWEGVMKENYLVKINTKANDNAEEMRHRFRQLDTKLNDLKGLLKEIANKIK

In the case of `C[C@@H]1C(=O)N(C[C@H](Cc2ccccc2)N(Cc2ccccc2)Cc2ccccc2)[C@]1(Cc1ccccc1)C(=O)OC(C)(C)C` [RGM8-51, 4(S)-Benzyl-3S-methyl-4-(tert-butoxy)carbonyl-1-[(2′S-dibenzylamino-3′-phenyl)prop-1′-yl]-2-oxoazetidine], the IC50 ([1]; HEK293-rTRPM8, 100 μM menthol) is reported as 1060 ± 1210 nM, the “ability to activate TRPM8 channels (agonist activity)” value ([1]; HEK293 cells expressing rat or human TRPM8) is reported as “did not have any ability to activate TRPM8 channels” and the “Log D” value [2] is reported as 5.7. For the same compound, the logD ([2]; organic phase/aqueous buffer partition) was 5.77.
